Results from patent US20240277861A1, “ANTI-HEPATITIS B VIRUS AGENT TARGETING HOST FACTOR LIPG” (PUROTECH BIO, INC., priority 2021, published 2024).
Residues, ends and D or L forms follow the SMILES beside them.

What was measured:
[1] = type: physicochemical
Text: Therefore, peptides designed by reducing the number of amino acid residues in these two peptides to 8 (LIPH4-23s and LIPH4-NTNBs) were next chemically synthesized.

[2] = tested on: HBV; test: Anti-HBV activities of LIPG-binding peptides in PXB cells; type: cell-based; details: HBV-infected PXB cells
Procedure: An infection source medium was prepared by adding the HBV-infected chimeric mouse serum (PhoenixBio), DMSO, and a PEG 8000 solution to the PXB cell culture medium (PhoenixBio) at final concentrations of 5 genome equivalents/cell, 2%, and 4%, respectively. Various synthesized peptides were diluted to different concentrations in this medium, and the resulting media were added individually to PXB cells (PhoenixBio). After the cells were left to stand in a 5% CO2 incubator at 37° C. for 20 to 28 hours, the medium was removed and the wells were washed once with PBS(−). DMSO and one of the various synthesized peptides were added to the PXB cell culture medium at a final concentration of 2% and different concentrations, respectively, and the resulting media were added individually to the PXB cells to perform medium exchange. This medium exchange was performed at 1, 5, and 9 days post infection and samples were collected at 14 days post infection.
(§1) SMI TEST™ M EX-R&D (Medical & Biological Laboratories) was used to extract DNA from the samples. The extracted DNA was used as a template for quantitative PCR of HBV-DNA. For cccDNA detection, the extracted DNA was treated with T5 exonuclease (New England Biolabs), and the resulting DNA was used as a template for quantitative PCR. The T5 exonuclease treatment was performed at 37° C. for 30 minutes, and the DNase was later inactivated by heating at 80° C. for 15 minutes. The following primer set was used for detection.
PXB cells, fresh human liver cells isolated from PXB mice (human hepatocyte chimeric mice), are human liver cells that maintain human liver functions at high levels and allow persistent infection with hepatitis B virus (HBV). Therefore, PXB cells were used to evaluate the anti-HBV activities of LIPG-binding peptides. LIPG-binding peptides were chemically synthesized because they were added extracellularly (Eurofins Genomics K.K.). Clones that had shown excellent results in the studies of Examples 10 and 1 (KIgk-LIPH4-23, KIgk-LIPH4-74, KIgk-LIPH4-15, KIgk-L1l 14-2. KIgk-LIPH14-14. KIgk-LIPH4-87) were selected for chemical synthesis of the peptides. […] Therefore, LIPH4-NTNA and LIPH4-NTNB, which share a common sequence with netrins and consist of 16 amino acids, were also chemically synthesized. The chemically synthesized peptides were dissolved in DMSO for use in HBV assays in PXB cells.
Next, the anti-HBV activity of full-length Netrin-1 was examined in PXB cells. A full-length human recombinant Netrin-1 protein consisting of 604 amino acid residues (molecular weight: 67.5 kDa, SEQ ID NO: 28) was purchased from R&D Systems. United States. A shRNA with the sequence […]ctcgagc[…] TTTTTTG (single underline: terminal sequences for cloning, lowercase letters: hairpin loop sequence) (SEQ ID NO: 64) was used to knock down the Netrin-1 gene.

[3] = tested on: HBV; test: Anti-HBV activities of LIPG-binding peptides in HepG2-NTCP-C4 cells (plasmid transfection); type: cell-based
Procedure: as §1
Cells were infected with HBV derived from HepG2.2.15 at 20,000 genome equivalents/cell, and plasmids carrying different peptides were transfected individually into the cells 12 to 15 days post infection using Lipofectamine 3000. Samples were collected 3 to 5 days after transfection for evaluation of HBV-DNA, cccDNA, pgRNA, and the like.
For the clones positive in the pull-down experiment against full-length LIPG, the anti-HBV activities of the LIPG peptides were evaluated in HepG2-NTCP-C4 cells (FIG. 17). A secretion signal is added to a plasmid carrying each peptide. Therefore, the peptides are expected to be secreted from cells transfected with the plasmids and to bind to LIPG in the extracellular environment. […] Moreover, the copy number of cccDNA was reduced by almost all the clones.

[4] = biological target: T1, full-length form of LIPG (500 amino acids) (Homo sapiens, UniProt Q9Y5X9); test: Pull-down assay of LIPH4 peptides against full-length LIPG; type: binding; details: culture supernatant of transfected 293T cells, compared with no bait
T1 construct: A pull-down assay was performed on the full-length form of LIPG (500 amino acids); made in house
T1 sequence (Q9Y5X9 21-500): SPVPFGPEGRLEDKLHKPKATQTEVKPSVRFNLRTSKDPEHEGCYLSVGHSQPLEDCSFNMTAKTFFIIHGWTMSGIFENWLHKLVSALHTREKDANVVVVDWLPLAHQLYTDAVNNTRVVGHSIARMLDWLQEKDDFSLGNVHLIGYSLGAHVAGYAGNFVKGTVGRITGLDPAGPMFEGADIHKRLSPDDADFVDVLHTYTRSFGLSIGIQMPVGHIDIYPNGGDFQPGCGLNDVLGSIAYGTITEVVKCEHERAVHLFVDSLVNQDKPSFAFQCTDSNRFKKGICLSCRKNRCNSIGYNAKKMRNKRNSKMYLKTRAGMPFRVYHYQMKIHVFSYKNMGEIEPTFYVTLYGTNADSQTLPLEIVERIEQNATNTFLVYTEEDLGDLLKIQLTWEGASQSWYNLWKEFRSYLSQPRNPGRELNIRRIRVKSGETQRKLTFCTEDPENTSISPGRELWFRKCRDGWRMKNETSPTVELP
Procedure: Human embryonic kidney 293T cells were cultured in DMEM (1.0 g/l glucose) with L-Gln and Sodium Pyruvate, liquid (Nacalai) supplemented with 10% FCS ([…]). Plating was performed in a 1:2 ratio on 6 cm dishes 24 hours before transfection. Lipofectamine 2000 in a volume of 20 μl was added to 500 μl of Opti-MEM 1 and allowed to stand for 5 minutes at room temperature, and the resulting mixture was gently added to a 6 cm dish containing a mixture of 500 μl of Opti-MEM 1 and 8 μg of a plasmid DNA. The resulting mixture was allowed to stand for 20 minutes at room temperature, and then added to a 6 cm dish containing 293T cells, and the cells were cultured at 37° C. in 5% CO2 for 4 to 6 day.
Resin (Streptavidin MagneSphere Paramagnetic Particles) (Promega) was washed using the MagneSphere Technology Magnetic Separation Stand (tweleve-position). The resin in a volume of 40 μl was added to each 1.5 ml tube, and after removal of the solution, washed three times with 1 ml of PBS. The resin was transferred to new tubes and mixed with 0.5 nmol (109 μl) of LIPG-BioFLAGHis or with 109 μl of PBS as a no bait control, and the resulting mixtures were agitated at 4° C. for 1 hour by rotation on a mini-disk rotor (BIO CRAFT) to allow binding. After removal of the solution, the resin was washed three times with 1 ml of TBST (containing 0.05% Tween 20). The resin was transferred to new tubes, blocked with 1 ml of ELISA BSA buffer (TBS, 0.05%, Tween 20, 1% BSA. Nacalai Tesque, Inc.) at 4° C. for 1 hour, and then washed three times with 1 ml of ELISA BSA buffer. The resin was transferred to new tubes, and 1000 μl of the culture supernatant containing expressed KIgk-LIPH4 was mixed with […] of the resin treated with LIPG-BioFLAGHis or without the bait, and the resulting mixtures were agitated at 4° C. for 1 hour and 30 minutes by rotation on a mini-disk rotor (BIO CRAFT) to allow binding. After removal of the solution, the resin was washed three times with […] of TBST (Tween 20, 0.1%), and the recovered resin was used for Western blotting.
Each resin was mixed with water and LDS sample buffer (4×), 0.2 mM DTT, heated at 70° C. for 10 minutes, and then subjected to SDS-PAGE. SDS-PAGE was performed using 4-12% Bis-Tris gel and NuPAGE MES-SDS electrophoresis buffer (Invitrogen) at 200 V and 400 mA for 35 minutes. After electrophoresis, transfer was performed using Mini Format, 0.2-μm PVDF, Single-application (BIO-RAD) Trans-Blot Turbo. The membrane was blocked with a Blocking One Buffer: TBST (1:9) solution and reacted with an anti-Flag-HRP (Sigma: A8592) diluted 2:3000 in a Blocking One Buffer: TBST (1:9) solution. Detection was performed using ECL (Enhanced ChemiLuminescence) on a ChemiDoc (BIO-RAD).
A pull-down assay was performed on the full-length form of LIPG (500 amino acids) with LIPH4 peptides (FIG. 16).

[5] = biological target: T2, N4BP1 (NEDD4 Binding Protein 1)
T2 chain: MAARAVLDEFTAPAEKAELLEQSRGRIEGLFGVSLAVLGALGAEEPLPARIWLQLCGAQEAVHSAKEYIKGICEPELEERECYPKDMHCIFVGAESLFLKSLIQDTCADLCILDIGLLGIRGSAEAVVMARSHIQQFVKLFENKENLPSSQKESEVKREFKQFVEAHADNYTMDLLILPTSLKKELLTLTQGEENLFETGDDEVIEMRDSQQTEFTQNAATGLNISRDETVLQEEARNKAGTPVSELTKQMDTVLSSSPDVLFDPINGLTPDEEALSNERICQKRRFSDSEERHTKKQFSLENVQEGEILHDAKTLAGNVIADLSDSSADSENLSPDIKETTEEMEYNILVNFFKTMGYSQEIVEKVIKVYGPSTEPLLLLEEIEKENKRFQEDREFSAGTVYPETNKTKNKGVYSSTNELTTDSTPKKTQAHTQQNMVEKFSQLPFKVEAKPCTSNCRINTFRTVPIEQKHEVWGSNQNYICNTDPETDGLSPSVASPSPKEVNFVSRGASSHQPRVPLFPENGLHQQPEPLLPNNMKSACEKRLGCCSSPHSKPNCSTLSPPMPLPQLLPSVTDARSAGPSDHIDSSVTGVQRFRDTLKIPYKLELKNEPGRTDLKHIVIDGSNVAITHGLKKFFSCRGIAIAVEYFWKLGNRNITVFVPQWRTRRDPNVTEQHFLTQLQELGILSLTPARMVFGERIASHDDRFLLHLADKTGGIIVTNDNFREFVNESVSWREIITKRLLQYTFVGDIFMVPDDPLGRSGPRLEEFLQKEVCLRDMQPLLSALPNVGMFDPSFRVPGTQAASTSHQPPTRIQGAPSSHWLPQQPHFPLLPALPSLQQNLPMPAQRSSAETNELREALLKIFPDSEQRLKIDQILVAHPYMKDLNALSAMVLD

Molecule: CC(C)C[C@H](N)C(=O)N[C@@H](CC(N)=O)C(=O)N[C@@H](CS)C(=O)N[C@@H](CCCNC(=N)N)C(=O)N[C@@H](CC(=O)O)C(=O)N[C@@H](CC(N)=O)C(=O)N[C@H](C(=O)N[C@@H](CCCNC(=N)N)C(=O)O)[C@@H](C)O [LIPH4-23s] (H-LNCRDNTR-OH; N-terminus and C-terminus assumed)
- solubility in PBS [1]: soluble in PBS (water soluble)

Molecule: C[C@H](NC(=O)[C@@H](NC(=O)[C@H](CC(N)=O)NC(=O)[C@H](Cc1c[nH]cn1)NC(=O)[C@H](CCCNC(=N)N)NC(=O)[C@H](CS)NC(=O)[C@@H](N)CC(N)=O)[C@@H](C)O)C(=O)NCC(=O)O [LIPH4-NTNBs] (H-NCRHNTAG-OH; N-terminus and C-terminus assumed)
- solubility in PBS [1]: soluble in PBS (water soluble)

Molecule: LNCRDNTRPVMSAMTC (LIPH4-23)
- anti-HBV activity (effect to reduce HBV DNA and cccDNA copy numbers) [2]: high anti-HBV activity
- anti-HBV activity [3]: remarkable anti-HBV activity

Molecule: LNCRDNTRPVMSAMTC [KIgk-LIPH4-23]
- copy number of HBV-DNA ([3]; vs control): reduced the copy number of HBV-DNA to near zero
- binding to LIPG in pull-down assay [4]: positive

B1: LIPG (500 aa, MW: 56.8 kDa) (protein)
chain: T1 sequence (Q9Y5X9 21-500)
- degradation of a 1203-base HBV L protein RNA by N4BP1 (RNase activity), agarose gel [5]: the degradation of the RNA was suppressed in the presence of LIPG by binding of LIPG to N4BP1
